Experimental data taken from paper PMC10056348, “Photocaged Histone Deacetylase Inhibitors as Prodrugs in Targeted Cancer Therapy” (Pharmaceuticals, 2023).

Key:
Format in all cases: cell-based, human
[1] = test system: caspase 3/7 in A2780 cells; experiment: Caspase-Glo 3/7 assay; settings: A2780, 0.5 µM, 24 h
Protocol: A2780 cells (8000 cells/well) were seeded in white sterile 96-well plates (ThermoFisher Scientific, Waltham, MA, USA, #136102). Dilutions (500 µM) in DMSO were prepared from the respective stock solutions in DMSO (10 mM). Predilutions used for photolysis experiments were irradiated in clear U-bottom 96-well microplates (Greiner Bio-One, Greiner AG, Kremsmünster, Austria) for 10 min in the UV reactor described above. Vehicle control (DMSO) or compounds, at a concentration of 0.5 µM, were added to the cells. The cells were then incubated for 24 h under standard culture conditions. The final volume was 100 µL, and the final DMSO concentration was 0.1%. After 24 h, cells were subsequently incubated with Caspase-Glo 3/7 substrate (Promega, Madison, WI, USA, #G8091) for 1 h at 25 °C, according to the manufacturer´s protocol. Luminescence was detected at 25 °C using a Spark microplate reader (Tecan Group AG, Maennedorf, Swiss). Two independent experiments were performed in triplicates.
GraphPad Prism (GraphPad Software, San Diego, CA, USA) was used to perform statistical analysis. Normality of the data was assessed using Shapiro–Wilk’s and Kolmogorov–Smirnov tests. To determine statistical differences between means, a one-way analysis of variance (ANOVA) was performed. If the difference was significant (p < 0.05), the mean of each column was compared to the mean of the control and corrected for multiple comparisons using Dunnett’s post-hoc test. Differences were considered statistically significant at * p < 0.05, ** p < 0.01, *** p < 0.001.

A2780 cells = experiment: Annexin V/PI apoptosis assay (flow cytometry); settings: A2780, 0.5 µM, 48 or 72 h
Protocol: A2780 cells (4 × 10^4 cells/mL) were seeded in 6-well plates (Starlab GmbH, Hamburg, Germany) and allowed to attach. First, dilutions (500 µM) in DMSO were prepared from the respective stock solutions in DMSO (10 mM). Predilutions for photolysis experiments were irradiated in clear U-bottom 96-well microplates (Greiner Bio-One, Greiner AG, Kremsmünster, Austria) for 10 min in the UV reactor described above. Subsequently, vehicle control (DMSO) or compounds, at a concentration of 0.5 µM, were added to the cells and incubated for 48 h and 72 h, respectively. The final volume was 3 mL, and the final DMSO concentration was 0.1%. Staining was performed in triplicate in two separate experiments using annexin V and propidium iodide and analyzed by flow cytometry (Guava® easyCyte^TM, Luminex, Austin, TX, USA), according to the manufacturer’s protocol (BioLegend, San Diego, CA, USA).
Results were expressed as mean with standard deviation (SD). Statistical analysis was performed using GraphPad Prism (GraphPad Software, San Diego, CA, USA). Normality of the data was analyzed using the Shapiro–Wilk’s test. Statistical significance was assessed using one-way analysis of variance (ANOVA) with Tukey’s multiple comparison test. Differences were considered statistically significant at * p < 0.05, ** p < 0.01, *** p < 0.001.

A2780 cell line = experiment: MTT cell viability assay, A2780
Protocol: The amelanotic melanoma cell line MV-3 was obtained from EPO GmbH Berlin-Buch. The human ovarian carcinoma cell line A2780 was obtained from the European Collection of Cell Cultures (ECACC, Salisbury, UK). The cell lines were cultivated in RPMI 1640 medium supplemented with 10% fetal bovine serum and 50 U/mL penicillin and 50 µg/mL streptomycin and incubated at 37 °C under humidified air with 5% CO2 to 80–90% confluency before being used in further assays.
For this, 200-fold dilution series of the compounds of the respective stock solutions in DMSO (10 mM) were prepared in DMSO using clear U-bottom 96-well microplates (Greiner Bio-One, Greiner AG, Kremsmünster, Austria). Predilutions intended for photolysis experiments were irradiated for 10 min in the UV reactor described above. Thereafter, all predilutions were further diluted 1:200 in medium and provided in clear sterile F-bottom 96-well plates (Starlab GmbH, Hamburg, Germany). MV-3 cells were added at a density of 3000 cells/well and A2780 cells at a density of 8000 cells/well. The cells were added directly and without prior attachment. Final volume was 200 µL, and the final DMSO concentration was 0,5%. After 72 h, 40 µL MTT (3-(4,5-dimethylthiazol-2-yl)-2,5-diphenyltetrazolium bromide; BioChemica, Applichem GmbH, Darmstadt, Germany ) solution (5 mg/mL in phosphate-buffered saline) was added to determine cell survival. The formazan dye was dissolved in DMSO (Sigma-Aldrich, Steinheim, Germany) after 1 h, and absorbance was measured at 570 nm and 690 nm using a Multiskan microplate photometer (Thermo Fisher Scientific, Waltham, MA, USA). Concentration-effect curves were generated using the four-parameter logistic equation (GraphPad Prism 9.0, San Diego, CA, USA), and mean IC50 values were determined by nonlinear regression based on at least three distinct experiments in duplicates.

IC50 (A2780 cell line; Homo sapiens, A2780, light or radiation study, MTT, 72 h, without UV irradiation) | IC50 (A2780 cell line; Homo sapiens, A2780, light or radiation study, MTT, 72 h, after UV irradiation (365 nm, 10 min)) | Structure (SMILES) | activation of caspase 3/7 ([1]; without UV) | early and late apoptosis vs DMSO control (A2780 cells; without UV irradiation) | activation of caspase 3/7 ([1]; + UV (365 nm, 10 min)) | early and late apoptosis vs DMSO control (A2780 cells; after light activation) | inhibition at 25 µM (A2780 cell line; Homo sapiens, A2780, light or radiation study, at 25 µM, without UV irradiation) | IC50 (A2780) (A2780 cell line; MTT, 72 h, without UV irradiation)
249 ± 84.7 nM |  | CN(C)c1ccc(C(=O)N(CC(=O)NCc2ccccc2)Cc2ccc(C(=O)NO)cc2)cc1 [I, N-[2-(benzylamino)-2-oxoethyl]-4-(dimethylamino)-N-[4-(hydroxycarbamoyl)-benzyl]-benzamide] | significant activation of caspase 3/7 | significant increase in early and late apoptotic cells |  |  |  | 
 | 428 ± 62.5 nM | COc1cc(CONC(=O)c2ccc(CN(CC(=O)NCc3ccccc3)C(=O)c3ccc(N(C)C)cc3)cc2)c([N+](=O)[O-])cc1OC [pc-I, N-[2-(Benzylamino)-2-oxoethyl]-N-(4-{[(4,5-dimethoxy-2-nitrobenzyl)oxy]carbamoyl}benzyl)-4-(dimethylamino)benzamide] | inactive | no significant increase in early and late apoptosis | significant activation of caspase 3/7 | increased apoptosis levels which were comparable to compound I | < 25% | n.e. ^b (n.e— no effect: <25% inhibition at 25 µM)
